Results from US20240199571A1, “THIOPHENE COMPOUND AND APPLICATION THEREOF” (MEDSHINE DISCOVERY INC., priority 2021, published 2024).
Where a name gives a salt, the structure may show the parent alone.

How the values were obtained:
NCI-H1417 cells = test: Experiment 2: inhibition of NCI-H1417 cell proliferation (CellTiter-Glo, 10 days); type: cell-based; settings: Homo sapiens, 240 h, 10 days incubation
Procedure: Experiment 2: Evaluation of Inhibitory Activity on NCI-H1417 Cell Proliferation
Experimental purpose: To test the inhibitory activity of test compounds on NCI-H1417 cell proliferation.
Experimental materials: RPMI 1640 medium, fetal bovine serum, Promega CellTiter-Glo reagent. The NCI-H1417 cell line was purchased from ATCC. Envision multilabel plate reader (PerkinElmer).
Experimental method: The compounds were dissolved to 10 mM and 5-fold diluted with DMSO in the compound plates, starting with a concentration of 2 mM. 3-fold serial dilution was performed with Bravo to 10 concentrations. Then 250 nL of the compound solution was transferred to the upper and lower double duplicate wells of a blank 384 cell plate with Echo. To each well containing the transferred 250 nL of DMSO/compound was added a cell suspension of 1000 cells/50 μL per well, and the compound was diluted 200-fold, i.e., resulting in an initial working concentration of 10 μM. The cell plate was incubated in a carbon dioxide incubator for 10 days. To the cell plate was added 25 μL of Promega CellTiter-Glo reagent per well and the mixture was shaken for 10 minutes at room temperature to stabilize the luminescence signal. Readings were performed on a PerkinElmer Envision multilabel plate reader.
Data analysis: Raw data were converted into inhibition rate using the formula: (Max−Ratio)/(Max−Min)*100%. The IC50 values could then be derived from four-parameter curve fitting. (derived from 205 mode in XLFIT5, iDBS)
The compounds were tested for inhibitory activity of compounds on NCI-H1417 cell proliferation, and the results are shown in Table 3.

human LSD1 = human LSD1 (Homo sapiens (Human), UniProt O60341); test: Experiment 1B: in vitro LSD1 enzyme activity, enzyme-coupled fluorescence (HRP/Amplex Red), H3(1-21)K4me2 peptide 10 μM (Reaction Biology); type: biochemical; settings: histone H3(1-21)K4me2 peptide 10 μM
Procedure: Experiment 1B: Evaluation of Enzyme Activity
Testing unit: Reaction Biology Corp., USA.
The purpose of the assay was to test the in vitro inhibitory activity of the compounds against LSD1. The enzyme used in the assay was human LSD1, and the standard substrate was histone H3(1-21)K4me2 peptide (10 μM). The activity of the compounds was determined by the enzyme-coupling fluorescent method by the combined detection of H2O2 generated after the reaction of LSD1 by horseradish peroxidase (HRP) and the fluorescent reagent Amplex Red. Starting from 10 μM, the compounds were 3-fold diluted to detect the IC50 values of the compounds at 10 concentrations. The enzyme and substrate were incubated for 30 minutes before the compound was added to the substrate to start the reaction. Fluorescence detector: EnVision, excitation wavelength: Ex/Em=535/590 nM.

IC50 (NCI-H1417 cells) [µM] | IC50 (human LSD1) [µM] | SMILES
0.00332 | 0.0136 | N#Cc1ccc(-c2cc(C(=O)N3CCC[C@@H](N)C3)sc2-c2ccc3nn(CC4(O)CCC4)cc3c2)cc1F [Hydrochloride of compound 79]
– | 0.101 | N#Cc1ccc(-c2cc(C(=O)N3CCC[C@@H](N)C3)sc2-c2ccc(N)nc2)cc1F [Hydrochloride of compound 49]
– | 0.0474 | N#Cc1ccc(-c2cc(C(=O)N3CCC[C@@H](N)C3)sc2-c2ccn3cncc3c2)cc1F [Compound 78]
0.00236 | 0.0184 | CC(C)(O)Cn1ncc2cc(-c3sc(C(=O)N4CCC[C@@H](N)C4)cc3-c3ccc(C#N)c(F)c3)cnc21 [Compound 60]
0.00093 | 0.00173 | N#Cc1ccc(-c2cc(C(=O)N3CCC[C@@H](N)C3)sc2-c2ccc3c(c2)OCO3)cc1F [Hydrochloride of compound 37]
– | 0.251 | Cn1cc(-c2sc(C(=O)N3CCC[C@@H](N)C3)cc2-c2ccc(C#N)c(F)c2)cn1 [Hydrochloride of compound 52]
0.00917 | 0.0177 | CC(C)(O)CNc1ccc(-c2sc(C(=O)N3CCC[C@@H](N)C3)cc2-c2ccc(C#N)c(F)c2)cc1F [Hydrochloride of compound 119]
0.0182 | 0.0066 | COc1ccc(-c2sc(C(=O)N3CCC[C@H](N)C3)cc2-c2ccc(C#N)c(F)c2)cc1F [Hydrochloride of compound 18]
0.0259 | 0.0132 | N#Cc1ccc(-c2cc(C(=O)N3CCC[C@@H](N)C3)sc2-c2ccn3ccnc3c2)cc1F [Compound 84]
0.00683 | 0.0194 | COc1ccc(-c2sc(C(=O)N3CCC[C@@H](N)C3)cc2-c2ccc(C#N)c(F)c2)c(F)c1 [Hydrochloride of compound 21]
0.00625 | 0.0267 | Cn1nc2ccc(-c3sc(C(=O)N4CCC[C@@H](N)C4)cc3-c3ccc(C#N)c(F)c3)cc2c1F [Hydrochloride of compound 123]
0.0162 | 0.038 | N#Cc1ccc(-c2cc(C(=O)N3CCC[C@@H](N)C3)sc2-c2ccnc(N)c2)cc1F [Hydrochloride of compound 33]
0.00475 | 0.0166 | CN[C@@H]1CCCN(C(=O)c2cc(-c3ccc(C#N)c(F)c3)c(-c3ccc4nn(C(C)(C)CO)cc4c3)s2)C1 [Hydrochloride of compound 104]
0.00479 | 0.0206 | N#Cc1ccc(-c2cc(C(=O)N3CCC[C@@H](N)C3)sc2-c2ccc(N3CC[C@H](O)C3)c(F)c2)cc1F [Hydrochloride of compound 96]
0.00064 | – | Cc1c2cc(-c3sc(C(=O)N4CCC[C@@H](N)C4)cc3-c3ccc(C#N)c(F)c3)ccc2nn1C [Hydrochloride of compound 71]
– | 0.0734 | N#Cc1ccc(-c2cc(C(=O)N3CCC[C@@H](N)C3)sc2-c2ccc3ncncc3c2)cc1F [Hydrochloride of compound 66]
0.00356 | 0.0204 | CC(C)(O)Cn1cc2cc(-c3sc(C(=O)N4CCC[C@@H](N)C4)cc3-c3ccc(C#N)c(F)c3)ccc2n1 [Compound 58]
0.0286 | – | N#Cc1ccc(-c2cc(C(=O)N3CCC[C@@H](N)C3)sc2-c2ccc3n[nH]cc3c2)cc1F [Hydrochloride of compound 63]
– | 0.0332 | N#Cc1ccc(-c2cc(C(=O)N3CCC[C@@H](N)C3)sc2-c2ccc3nccn3c2)cc1F [Compound 74]
0.0111 | – | Cn1cc2ccc(-c3sc(C(=O)N4CCC[C@@H](N)C4)cc3-c3ccc(C#N)c(F)c3)cc2n1 [Hydrochloride of compound 65]

Further lines, the molecule ahead of its results:

SMILES | IC50 (NCI-H1417 cells) [µM] | IC50 (human LSD1) [µM]
CN[C@@H]1CCCN(C(=O)c2cc(-c3ccc(C#N)c(F)c3)c(-c3ccc(N4CC[C@H](O)C4)cc3)s2)C1 [Hydrochloride of compound 108] | 0.00211 | –
N#Cc1ccc(-c2cc(C(=O)N3CCC[C@@H](N)C3)sc2-c2ccc(N3CC[C@H](O)C3)cc2)cc1F [Hydrochloride of compound 107] | 0.00331 | 0.0151
CN(C)[C@@H]1CCCN(C(=O)c2cc(-c3ccc(C#N)c(F)c3)c(-c3ccc4nn(C(C)(C)CO)cc4c3)s2)C1 [Hydrochloride of compound 105] | 0.00614 | –
COc1ccc(-c2sc(C(=O)N3CCCC(N(C)C)C3)cc2-c2ccc(C#N)c(F)c2)cc1F (stereo not drawn) [Hydrochloride of compound 26] | 0.00687 | 0.0196
N#Cc1ccc(-c2cc(C(=O)N3CCC[C@@H](N)C3)sc2-c2ccc(N3CC[C@@H](O)C3)c(F)c2)cc1F [Hydrochloride of compound 101] | 0.00335 | 0.0287
N#Cc1ccc(-c2cc(C(=O)N3CCC[C@@H](N)C3)sc2-c2ccc(NCC3(O)CCC3)c(F)c2)cc1F [Hydrochloride of compound 120] | 0.0175 | 0.0094
COc1ccc(-c2sc(C(=O)N3CCC4(CC3)COCC4N)cc2-c2ccc(C#N)c(F)c2)cc1F (stereo not drawn) [Hydrochloride of compound 23] | – | 0.0768
COc1ccc(-c2sc(C(=O)N3CCNC(C)CC3)cc2-c2ccc(C#N)c(F)c2)cc1F (stereo not drawn) [Hydrochloride of compound 29] | 0.0172 | 0.0297
COc1ccc(-c2sc(C(=O)N3CCC(N(C)C)C3)cc2-c2ccc(C#N)c(F)c2)cc1F (stereo not drawn) [Hydrochloride of compound 24] | 0.0306 | 0.0709
COc1ccc(-c2sc(C(=O)N3CCCN(CC#N)CC3)cc2-c2ccc(C#N)c(F)c2)cc1F [Compound 40] | 0.0187 | 0.0956
Cn1nnc2cc(-c3sc(C(=O)N4C5CCC4C(N)C5)cc3-c3ccc(C#N)c(F)c3)ccc21 (stereo not drawn) [Compound 14] | 0.00054 | 0.00537
CN[C@@H]1CCCN(C(=O)c2cc(-c3ccc(C#N)c(F)c3)c(-c3ccc(N4CC(C)(O)C4)cc3)s2)C1 [Compound 122] | 0.00983 | 0.0131
N#Cc1ccc(-c2cc(C(=O)N3CCC[C@@H](N)C3)sc2-c2ccc(N3CC[C@H](O)C3)cc2F)cc1F [Hydrochloride of compound 114] | 0.00518 | –
N#Cc1ccc(-c2cc(C(=O)N3CCC[C@@H](N)C3)sc2-c2cc3nnn([C@H]4COCC[C@@H]4O)c3c(F)c2F)cc1F [Hydrochloride of compound 97] | 0.0096 | 0.0253
CC(C)(CO)n1nnc2cc(-c3sc(C(=O)N4CCCNCC4)cc3-c3ccc(C#N)c(F)c3)c(F)c(F)c21 [Hydrochloride of compound 103] | 0.0137 | 0.0216
N#Cc1ccc(-c2cc(C(=O)N3CCC[C@@H](N)C3)sc2-c2cc3nnn(CC4(O)CCC4)c3c(F)c2F)cc1F [Hydrochloride of compound 92] | 0.00043 | 0.00981
N#Cc1ccc(-c2cc(C(=O)N3CCC[C@@H](N)C3)sc2-c2ccc(N3CC[C@@H](O)C3)cc2F)cc1F [Hydrochloride of compound 112] | 0.00499 | 0.00584
CN[C@@H]1CCCN(C(=O)c2cc(-c3ccc(C#N)c(F)c3)c(-c3ccc(N4CC[C@@H](O)C4)cc3F)s2)C1 [Hydrochloride of compound 113] | 0.00398 | –
N#Cc1ccc(-c2cc(C(=O)N3CCC[C@@H](N)C3)sc2-c2cc3cn(CC4(O)CC4)nc3cc2F)cc1F [Hydrochloride of compound 93] | 0.00411 | 0.018
N#Cc1ccc(-c2cc(C(=O)N3CCCNCC3)sc2-c2cc3nnn(CC4(O)CCC4)c3c(F)c2F)cc1F [Hydrochloride of compound 100] | 0.00037 | 0.0141
CN(C)[C@@H]1CCCN(C(=O)c2cc(-c3ccc(C#N)c(F)c3)c(-c3cc4nnn(CC(C)(C)O)c4c(F)c3F)s2)C1 [Hydrochloride of compound 106] | 0.00019 | –
COc1ccc(-c2sc(C(=O)N3CCCNCC3C)cc2-c2ccc(C#N)c(F)c2)cc1F (stereo not drawn) [Hydrochloride of compound 25] | – | 0.0639
COc1ccc(-c2sc(C(=O)N[C@@H]3CCNC3)cc2-c2ccc(C#N)c(F)c2)cc1F [Hydrochloride of compound 27] | – | 0.0482
N#Cc1ccc(-c2cc(C(=O)N3CCC[C@@H](N)C3)sc2-c2cc3cn(CC4(O)CCC4)nc3cc2F)cc1F [Hydrochloride of compound 95] | 0.00251 | 0.0101
N#Cc1ccc(-c2cc(C(=O)N3CCCNCC3)sc2-c2ccc(N3CC[C@H](O)C3)cc2)cc1F [Hydrochloride of compound 116] | – | 0.00927
COc1ccc(-c2sc(C(=O)N3CC[C@H](F)[C@@H](N)C3)cc2-c2ccc(C#N)c(F)c2)cc1F [Hydrochloride of compound 19] | – | 0.0648
CN[C@@H]1CCCN(C(=O)c2cc(-c3ccc(C#N)c(F)c3)c(-c3ccc(N4CC[C@H](O)C4)cc3F)s2)C1 [Hydrochloride of compound 115] | 0.00194 | –
